{"source": "patent US6538107B1", "about": "“G protein coupled receptor protein production, and use thereof” (Takeda Chemical Industries, Ltd., priority 1994, dated 2003)", "tested_on": "oocytes injected with H2O", "assay": "Electrophysiological measurement in control Xenopus oocytes injected with H2O instead of pMAH2-17 cRNA", "type": "cell-based", "conditions": "ATP stimulation, initial membrane potential −60 mV", "data": [{"smiles": "Nc1ncnc2c1ncn2[C@@H]1O[C@H](COP(=O)(O)OP(=O)(O)OP(=O)(O)O)[C@@H](O)[C@H]1O", "note": "[ATP, Adenosine triphosphate]", "values": [{"measurement": "inward currents (current changes of the membrane) evoked by ATP", "result": "such a current was not observed"}]}]}
